Measured values taken from US12264185B2, “Stabilized BCL9 peptides for treatment of aberrant Wnt signaling” (WntRx Pharmaceuticals Inc., priority 2015, dated 2025).
Where “and” joins values, the source holds several entries; their conditions need not be identical. Equal values may be shown once. Bridge positions count the residues as written; N and C are the ends. Square brackets hold non-standard residues; d marks the D form. Peptide text beside a SMILES is read from it. 2Nal = N[C@@H](Cc1ccc2ccccc2c1)C(=O)O; R5 = C=CCCC[C@@](C)(N)C(=O)O; S5 = C=CCCC[C@](C)(N)C(=O)O; βAla = NCCC(=O)O

How the values were obtained:
Colo320DM cells = assay: cells; settings: Colo320DM cells
Method: Colo320DM cells were selected for this assay as the proliferation of this particular cell line is dependent on BCL9 and β-catenin. ICG001, a known Wnt/β-catenin small molecule inhibitor, was used as a positive control. The cell viability at each treatment condition was analyzed using CellTiterGlo luminescent cell viability assay (Promega) according to the manufacturer's protocols.
Following the procedure described in Example 2, the ability of WX-035 to inhibit cell growth was tested in a cell viability assay using Colo320DM cells.

[1] = Pharmacokinetics in female balb/c mice; assay type: in vivo; settings: mouse, plasma, 30 mg/kg intravenous or intraperitoneal
Method: The peptide solution was prepared at the fixed concentration of 0.5 mg/ml, and then suitable amounts were administered according to the dose. The same mixed solvent was used as a vehicle treatment. Blood samples (300 IA) were collected periodically from the retro-orbital vein at 0.25, 1, 2, 4, 6, 7, 12, and 24-hours post-dose (and 36 and 48 hours post-dose for intramuscular, subcutaneous, and intraperitoneal routes), followed by plasma separation for pending bioanalysis by LC-MS/MS. Standard PK parameters were calculated by non-compartmental analysis modules in WinNonlin Professional (v5.2, Pharsight, FDA-certified).
Two different administration routes, intravenous or intraperitoneal, were compared using 30 mg/kg WX-035. […] As observed with male ICR mice, the half-life of WX-035 in this experiment was more than 9 hours.

CT26 cells = assay: CT26 syngeneic mouse model of colon cancer (Balb/c); assay type: in vivo, mice
Method: The syngeneic mouse model of colon cancer using CT26 was then assessed. Male Balb/c mice were injected subcutaneously in the right flank with 5×10^4 CT26 cells each at approximately 5 weeks of age. […] Eight mice were included in each treatment group.
The whole blood was taken from each mouse. Lymphocytes were purified from the blood samples by Ficoll, and the cells were stained with fluorescent anti-CD4 antibody. Data were measured by flow cytometry.
As described above, the whole blood was taken from each mouse. Lymphocytes were purified from blood by Ficoll, and the cells were stained with fluorescent anti-CD8 antibody. Data were measured by flow cytometry.
To further assess whether WX-024 is capable of modulating a tumor microenvironment, tumor and blood samples were collected in anticoagulation tubes at the end of the study. Single cells separation was performed and then cells were stained for FACS analysis. For cell surface staining, CD45-PerCP-Cy5, CD4-FITC, CD8-PE-Cy7, and CD25-PE were used. For intranuclear staining, cells were permeabilized overnight and then stained with Foxp3-APC for 60 minutes.
The in vivo efficacy of WX-035 in treating a cancer was assessed in a syngeneic mouse model, following the procedures described in Example 5.3. Trametinib, a known MEK inhibitor, was used as a comparison. Briefly, balb/c mice were inoculated with CT26 and treatment started when tumor volume reached to about 100 mm^3. The mice were then divided into three groups and began administered with a vehicle, 40 mg/kg WX-035, or 1 mg/kg trametinib for 7 consecutive days.
At the end of the study described in Example 9.2, a tumor sample from each mouse was collected to assess the effect of WX-035 in modulating T cell activation. The FACS analysis of each tumor sample was performed following the procedure described in Example 5. A shown in FIG. 36A, treatment with WX-035 reduced the total amount of CD45^+ cells. […] Likewise, Foxp3^+ CD25^+ T cells were reduced by WX-035 treatment (FIG. 36C). […] Furthermore, by increasing the ratio of cytotoxic T cells over regulatory T cells, WX-035 may induce a microenvironment that favors an immune reaction beneficial for tumor treatment. Of note, the samples collected from this experiment were also assessed for LGR5 expression.

[2] = Toxicity study of WX-035 in balb/c nude mice (H&E of major organs); assay type: in vivo; settings: 30 mg/kg or 40 mg/kg i.v., 7 consecutive days
Method: To assess the toxicity effect of WX-035, balb/c nude mice were administered with a vehicle, or 30 mg/kg, or 40 mg/kg WX-035, following the procedure described in Example 5.6. At the end of the study, the mice were sacrificed and major organs were harvested for H&E staining.

CT26.WT cells = assay type: cell-based
Method: One of the stabilized polypeptides generated in Example 10 was tested in a cell viability assay and compared against WX-035. WX-037 was selected for this comparison study. The cell viability assay was performed with CT26.WT cells (ATCC), following the procedures described in Example 2. Briefly, 4000 cells per well of each plate were seeded with 50 μL opti-MEM medium. Each polypeptide, WX-035 or WX-037, was diluted with 2% FBS containing opti-MEM medium using 1 μL of 200× concentrated polypeptide in 99 μL of the medium. Each stock solution was diluted for testing a wide range of concentrations. 50 μL of 2× concentrated polypeptide was added to each well of the plate. Three days after the polypeptide addition, the viability of cells was measured using CellTiterGlo assay, according to the manufacturer's protocol.

FIG. 33B = assay: FIG. 33B
Method: Table printed on a drawing sheet, FIG. 33B
The patent's description of the figure: FIG. 33A and FIG. 33B show PK data for WX-035 administered to male ICR mice (an outbred strain). The mice were treated with either 1 mg/kg, or 5 mg/kg WX-035 intravenously or 5 mg/kg WX-035 intraperitoneally.
First reader's note: Plasma PK parameters by route and dose; according to the description the animals are male ICR mice.

FIG. 34B = assay: FIG. 34B
Method: Table printed on a drawing sheet, FIG. 34B
The patent's description of the figure: FIG. 34A and FIG. 34B show PK data for WX-035 administered to female balb/c mice (n=3). The mice were either intravenously or intraperitoneally administered with 30 mg/kg WX-035. Blood samples from each mouse were collected at 5 min, 15 min, 30 min, 1, 2, 4, 6, 8, 12, 24, 36, 48, and 72 hours post administration.
First reader's note: Substance, dose (30 mg/kg IV and IP) and species (female Balb/c nude mice, N=3) are printed in the title of FIG. 34A on the same sheet; the label F is printed once, between the mIL/min/kg row and the % row, so the mIL/min/kg row may in fact belong to CL.

[3] = Pharmacokinetics in male ICR mice; settings: mouse, plasma, 5 mg/kg
Method: The tail vein was used for i.v. injections. […] Following injections, blood samples were obtained via the retro-orbital vein at 5 min, 1, 2, 4, 6, 8, 12, and 24 hours postdose. Plasma was obtained from the blood samples following mixing with sodium heparin and centrifugation.
LC analysis was done using an Agilent 100 HPLC. MS analysis was done using an AB Sciex API 4000. Calibration standards were prepared by serial dilution.
The maximum observed concentration (Cmax), terminal half-life (T1/2), total body clearance (CL), volume of distribution (Vz), area under the curve from the time of dosing to the last measurable concentration (AUC0-t), area under the curve from the time of dosing extrapolated to infinity (AUC0-inf), and bioavailability were calculated using noncompartmental analysis modules in the FDA-certified pharmacokinetic program WinNonlin Professional v5.2 (Pharsight).
Briefly, the mice were administered 1 mg/kg or 5 mg/kg intravenously, or 5 mg/kg intraperitoneally. Blood samples were collected at 15 min, 1, 2, 3, 6, 8, 12, and 24 hours post administration.

B16F10 cells = assay: B16F10 syngeneic model in C57BL/6 mice; assay type: in vivo; settings: 12 days
Method: C57BL/6 mice were inoculated with B16F10 cells. Female C57BL/6 mice aged 4-5 weeks were inoculated with B16F10 cells (2×10^5 cells in 0.05 ml per mouse) in the right flank. When the average tumor size of the mice reached 100 mm^3, the mice were divided into two groups (N=6). […] The treatment was intraperitoneally administered daily for 14 consecutive days.
The treatment was intraperitoneally administered daily for 12 consecutive days. At the end of the treatment, the mice were sacrificed and tumor and blood samples were collected in anticoagulation tubes. Single cell separation was performed for each sample and then stained for FACS analysis. For cell surface staining, CD45-PerCP-Cy5, CD4-FITC, CD8-PE-Cy7, and CD25-PE were used. The tumor samples were then stained with either an anti-CD4 antibody or an anti-CD8 antibody to assess the presence of T cells in the tumor samples. The tumor samples were also stained with an anti-CD194 antibody and anti-CD196 antibody to assess the presence of T helper 17 cells in the tumor samples.
The process of constructing WX-039 is described in Example 10. C57BL/6 mice were inoculated with B16F10 cells. […] The treatment was intraperitoneally administered daily for 12 consecutive days. At the end of the treatment, the mice were sacrificed and tumor and blood samples were collected in anticoagulation tubes. Tumor cells collected from the experiment were stained as described above and also with anti-CD205 antibody to assess whether WX compounds are capable of modulating dendritic cells.
The ability of WX-039 to suppress tumor growth was assessed in the animal model described in Example 5.4. Briefly, C57BL/6 mice were inoculated with B16 cells. Female C57BL/6 mice aged 5 weeks were inoculated with B16F10 cells (2×10^5 cells in 0.05 ml per mouse) in the right flank. When the average tumor size of the mice reached 100 mm^3, the mice were divided into two groups (N=3). The first group was administered 60 mg/kg WX-039 while the second group was treated with a vehicle. The treatment was intraperitoneally administered daily for 12 consecutive days.

[4] = Pharmacokinetics in female balb/c nude mice; assay type: in vivo; settings: mouse, plasma, sc, 10 mg/kg subcutaneously
Method: The pharmacokinetic profiles of the four additional polypeptides constructed in Example 10 were assessed following the procedures described in Example 5.1. WX-029 and WX-036 were administered 1 mg/kg intravenously to female balb/c nude mice. Blood samples were collected at 15 min, 1, 2, and 4 hours post administration. FIG. 39A and FIG. 39B summarize the plasma concentration and the pharmacokinetic profiles calculated for WX-029. FIG. 40A and FIG. 40B summarize the plasma concentration and the pharmacokinetic profiles calculated for WX-036.
Similarly, WX-039 and WX-040 were also tested in female balb/c nude mice and assessed for their pharmacokinetic profiles. WX-039 was administered at 5 mg/kg intravenously, 5 mg/kg intraperitoneally, or 10 mg/kg subcutaneously. WX-040 was administered at 30 mg/kg intravenously or 30 mg/kg intraperitoneally. Blood samples were collected at 15 min, 1, 2, 4, 8, 24, 36, 48, and 72 hours post administration. FIG. 41A and FIG. 41B summarize the plasma concentration and the pharmacokinetic profiles calculated for WX-039. FIG. 42A and FIG. 42B summarize the plasma concentration and the pharmacokinetic profiles calculated for WX-040.

[5] = 20 mg/kg WX-024 or 60 mg/kg WX-039 i.p. daily

For `CC[C@H](C)[C@@H]1NC(=O)[C@@](C)(NC(=O)[C@H](CCCNC(=N)N)NC(=O)[C@H](CC(C)C)NC(=O)[C@]2(C)CCCC=CCCC[C@@](C)(NC(C)=O)C(=O)N[C@@H](CC(C)C)C(=O)N[C@@H](CCC(N)=O)C(=O)N2)CCCC=CCCC[C@@](C)(C(=O)N[C@@H](CC(C)C)C(=O)N[C@@H](Cc2ccc3ccccc3c2)C(=O)NCCC(=O)NCCC(N)=O)NC(=O)[C@H](CCCNC(=N)N)NC(=O)[C@H](CCC(N)=O)NC1=O` [WX-035, Xaa1LQXaa2LRXaa3IQRXaa4L] (Ac-[R5]LQ[S5]LR[S5]IQR[S5]L[2Nal][βAla][βAla]-NH2; staple 1-4, 7-11), the “effect on cell viability / cell growth” value (Colo320DM cells) was “improved IC50 value as compared to WX-024”, the half-life [1] was > 540 min and the “Foxp3+ CD25+ T cells in tumor” value (CT26 cells; WX-035, 7 days) was “reduced”. For the same compound, the “LGR5 expression in intestine samples” value (CT26 cells; WX-035, 7 days) was “reduced”, the “total amount of CD4+ or CD8+ T cells in tumor” value (CT26 cells; WX-035, 7 days) was “reduced” and the “total amount of CD45+ cells in tumor” value (CT26 cells; WX-035, 7 days) was “reduced”. The “ratio between cytotoxic T cells (CD8+) and Foxp3+ regulatory T cells” value (CT26 cells; WX-035, 7 days, vs vehicle) was “increased”, the “average tumor growth inhibition” value (CT26 cells; WX-035 i.p. for 7 consecutive days, day 7 / end of study) was 88.44% and the “H&E staining of major organs” value [2] was “did not cause any significant abnormality to major organs”. The IC50 (CT26.WT cells) was 1860 nM, the “F | %” value (FIG. 33B) was 72% and the “AUCINF |” value (FIG. 34B) was 996.181 µg·h/mL and 997.708 µg·h/mL. The “AUClast |” value (FIG. 34B) was 987.148 µg·h/mL and 996.029 µg·h/mL, the “CL |” value (FIG. 34B) was 0.0301 L/h/kg and the “CMAX |” value (FIG. 34B) was 102393 ng/mL. For the same compound, the “MRTINF | hr” value (FIG. 34B) was 5.50 h, the “TERMINAL t1/2 | hr” value (FIG. 34B) was 9.81 h and 7.03 h and the “TMAX | hr” value (FIG. 34B) was 2.00 h. For the same compound, the “Vss |” value (FIG. 34B) was 0.166 L/kg and the half-life [3] was > 240 min.

In the case of `CC[C@H](C)[C@@H]1NC(=O)[C@@](C)(NC(=O)[C@H](CCCNC(=N)N)NC(=O)[C@H](CC(C)C)NC(=O)[C@]2(C)CCCC=CCCC[C@@](C)(NC(=O)[C@H](CCCNC(=N)N)NC(C)=O)C(=O)N[C@@H](CC(C)C)C(=O)N[C@@H](CCC(N)=O)C(=O)N2)CCCC=CCCC[C@@](C)(C(=O)N[C@@H](CC(C)C)C(=O)N[C@@H](Cc2ccc3ccccc3c2)C(=O)NCCC(=O)NCCC(N)=O)NC(=O)[C@H](CCCNC(=N)N)NC(=O)[C@H](CCC(N)=O)NC1=O` [WX-039, RXaa1LQXaa2LRXaa3IQRXaa4L] (Ac-R[R5]LQ[S5]LR[S5]IQR[S5]L[2Nal][βAla][βAla]-NH2; staple 2-5, 8-12), the “T helper 17 cells in tumor” value (B16F10 cells; [5]) is reported as “increased”, the “dendritic cells (CD205+) in tumor” value (B16F10 cells; [5]) is reported as “capable of suppressing dendritic cells present in tumor” and the body weight change (B16F10 cells; 60 mg/kg i.p. daily) is reported as “no substantial body weight change”. For the same compound, the “tumor growth compared to vehicle” value (B16F10 cells; 60 mg/kg i.p. daily) was “reduced tumor growth” and the half-life [4] was ~2.17 days.
